From patent US20090169630A1, “Methods and Compositions for Controlled and Sustained Production and Delivery of Peroxides and/or Oxygen for Biological and Industrial Applications” (priority 2006, published 2009)

Legend:
[1] = Permeation (diffusion) cell: hydrogen peroxide release from UHP/PFC slurry across a flat PLGA membrane; type: physicochemical; conditions: UHP/PFC slurry below, distilled water above
Excerpt: A diffusion cell was constructed in order to measure the release rate of hydrogen peroxide from UHP and its diffusion across a selectively permeable membrane. UHP was dispersed in a PFC liquid and maintained in the bottom half of the cell. Rather than coat the particles, a flat PLGA membrane was used to separate the UHP from distilled water located in the top half of the cell. The PLGA membrane is permeable to water and hydrogen peroxide, but is a very effective barrier to permeation of the PFC. Thus, during the experiment, water diffused across the PLGA membrane and into the PFC/UHP slurry in the bottom half of the cell. Hydrogen peroxide was generated when the water contacted the UHP. The hydrogen peroxide then diffused through the PLGA membrane into the top half of the diffusion cell.
The amount of hydrogen peroxide in the top half of the cell was monitored colorimetrically by testing samples that were periodically removed from the water-rich phase in the top half of the cell. […]

hypoxemic rabbits = conditions: cited from earlier work

SMILES | diffusion through the PLGA membrane [1] | rise in arterial PO2 (hypoxemic rabbits; hypoxemic rabbits, intravenous UHP) | outcome at amounts that would supply the oxygen consumption needs of a rabbit (hypoxemic rabbits; rabbits, high UHP amounts)
NC(N)=O [urea] | did not diffuse through the membrane | – | –
NC(N)=O.OO [UHP, urea hydrogen peroxide] | – | 10 mmHg | died of gas emboli
